Blank lines part the entries; values can stand above or below the compound they belong to.
Key:
CWR22R = assay: cells; format: cell-based; conditions: for IC50: Homo sapiens, 22Rv1, CWR22R, read-out: IC50 for inhibition of growth
Protocol: FIG. 21. Toxicity of PLA1055 to CWR22R cells in vitro depending on time of incubation. PLA1055 was added to CWR22R in full range of concentrations for the periods of time shown on the right. After that drug containing media were changed for drug free and survival of cells was detected at 72 hours after start of treatment using Alamar Blue assay (Promega).
(§1) This example provides a table (below) of the compounds of the present disclosure and their activity towards four different cell lines (i.e., CWR22R, HeLa, PC3, and MDA-MB-231). The IC50 for inhibition of growth is divided into 4 categories: A<1 μM, B 1-5 μM, C 5-20 μM, D>20 μM.
(§2) All compounds were tested for toxicity using 4 cells lines, target cells—CWR22R and non-target cells, Hela, PC3 and MDA-MB-231 (FIGS. 1A-F).
(§3) LC50 data of in vitro 72 hours cytotoxicity assay are included in this table for comparison.
An in vitro experiment was run to detect the concentration of PLA1055 needed to kill all tumor cells in vitro (LC90) during different periods of time (30 minutes-72 hours, FIG. 21)).

MDA-MB-231 = assay: Inhibition of growth / toxicity in non-target MDA-MB-231 cells; format: cell-based; conditions: Homo sapiens
Protocol: as §1, §2

PC3 = assay: Inhibition of growth / toxicity in non-target PC3 cells; format: cell-based; conditions: Homo sapiens, PC-3
Protocol: as §1, §2

Hela = assay: Inhibition of growth / toxicity in non-target Hela cells; format: cell-based; conditions: Homo sapiens, HeLa
Protocol: as §1, §2

[1] = Plasma concentration (PK) after intravenous and intraperitoneal injections; format: in vivo; conditions: for plasma concentration time course: after IV and IP injections; for plasma concentration time course / bioavailability through IP injection: 50-100 mg/kg; for bioavailability through IP injection: plasma concentrations similar or even higher after IP than IV
[2] = Solubility for in vivo administration; format: physicochemical; conditions: tested for PK using IP injection of the drug in suspension
CWR22R tumors = assay: In vivo efficacy, subcutaneous xenografts of CWR22R cells in SCID mice
Protocol: (§4) We tested these compounds in an in vivo efficacy experiment using model of CRPC in SCID mice, CWR22R. Two compounds, PLA1079 and 1125, which were synthesized in the amount of 500 mg were tested in full scale experiment with either 5 IV daily injections or 10 IP daily injections. After 5 IP or IV injections intra-tumor concentration of the compounds were measured in few mice from this experiment.
(§5) Two other compounds, PLA1148 and 1098 (PK testing in FIGS. 8 and 9) were tested in a small scale efficacy experiment. Upon PK testing of the compound PLA1148 one mouse was injected twice with 10 min interval. However the concentration of the drug in plasma of this mouse was not twice, but >4 times higher than in mice injected once. […] It was decided to utilize this observation in an attempt to get higher plasma and tumor concentration of both compounds. Therefore in the pilot efficacy experiment in the same model of CWR22R cells mice were treated with 2 IP injections with 10 minute interval. Treatment with PLA1098 was carried out for two days. […] However this is so far the highest concentration found in tumor.
Pilot efficacy experiments were run for compounds: PLA1163, PLA1148 using the same model of subcutaneous xenografts of CWR22R cells in SCID mice (FIGS. 18 and 19).

[3] = Tissue drug concentrations (tumor, liver, plasma) in treated CWR22R tumor-bearing mice; format: in vivo
Protocol: as §4
as §5, with “tumor. […]” for “tumor.”
as §3

[4] = Toxicity / side effects in treated mice; format: in vivo
Protocol: as §5
This compound may be also potentially promising.

[5] = Aqueous solubility (pH 7.4); format: physicochemical
[6] = Metabolic stability in the presence of mouse liver microsomes; format: in vitro ADME; conditions: for metabolic stability, % left: after 30 minute incubation with mouse liver microsome
[7] = single IV administration of 50 mg/kg (FIG. 20)
[8] = one mouse, 24 hours after injections
[9] = classification (Stable/Moderate/Unstable), lines whose second value is in %
[10] = in %, table title: Metabolic stability and solubility, % left after 30 minute incubation with mouse liver microsome

Compound: N#Cc1ccc2c(c1)c1c(C(N)=O)cccc1n2CCCF [Compound 19-2]
IC50 (CWR22R): < 1 µM | IC50 (MDA-MB-231): > 20 µM | IC50 (PC3): > 20 µM | IC50 (Hela): > 20 µM

Compound: CCCn1c2ccc(Br)cc2c2cc(C(C)=O)ccc21 [Compound 20-1, 1-(6-Bromo-9-propyl-9H-carbazol-3-yl)-ethanone]
IC50 (CWR22R): 5 to 20 µM | IC50 (MDA-MB-231): > 20 µM | IC50 (PC3): > 20 µM | IC50 (Hela): > 20 µM

Compound: CCCn1c2ccc(Cl)cc2c2cc(C(C)=O)ccc21 [Compound 20-2]
IC50 (CWR22R): > 20 µM | IC50 (MDA-MB-231): > 20 µM | IC50 (PC3): > 20 µM | IC50 (Hela): > 20 µM

Compound: CCCn1c2ccc(OC)cc2c2cc(C(C)=O)ccc21 [Compound 21-1, 1-(6-Methoxy-9-propyl-9H-carbazol-3-yl)-ethanone]
IC50 (CWR22R): 5 to 20 µM | IC50 (MDA-MB-231): > 20 µM | IC50 (PC3): > 20 µM | IC50 (Hela): > 20 µM

Compound: CCCn1c2ccccc2c2cc(C#N)ccc21 [Compound 22-2]
IC50 (CWR22R): < 1 µM | IC50 (MDA-MB-231): > 20 µM | IC50 (PC3): > 20 µM | IC50 (Hela): > 20 µM

Compound: CCCn1c2ccc(C(C)=O)cc2c2cc(C(N)=O)ccc21 [Compound 23-1, 6-Acetyl-9-propyl-9H-carbazole-3-carboxylic acid amide]
IC50 (CWR22R): 5 to 20 µM | IC50 (MDA-MB-231): 5 to 20 µM | IC50 (PC3): > 20 µM | IC50 (Hela): > 20 µM

Compound: CCCn1c2ccc(C(C)=O)cc2c2c(C#N)cccc21 [Compound 25-1, 6-Acetyl-9-propyl-9H-carbazole-4-carbonitrile]
IC50 (CWR22R): 1 to 5 µM | IC50 (MDA-MB-231): > 20 µM | IC50 (PC3): > 20 µM | IC50 (Hela): > 20 µM

Compound: N#Cc1cnc2c(c1)c1ccccc1n2CCCF [Compound 25-3]
IC50 (CWR22R): 1 to 5 µM | IC50 (MDA-MB-231): > 20 µM | IC50 (PC3): > 20 µM | IC50 (Hela): > 20 µM

Compound: N#Cc1ccc2c(c1)c1ccccc1n2CCCF [Compound 26-1, 9-(3-Fluoropropyl)-9H-carbazole-3-carbonitrile]
IC50 (CWR22R): < 1 µM | IC50 (MDA-MB-231): > 20 µM | IC50 (PC3): > 20 µM | IC50 (Hela): > 20 µM

Compound: CCCn1c2ccc(C(C)=O)cc2c2c(O)cccc21 [Compound 27-1, 1-(5-Hydroxy-9-propyl-9H-carbazol-3-yl)-ethanone]
IC50 (CWR22R): > 20 µM | IC50 (MDA-MB-231): > 20 µM | IC50 (PC3): > 20 µM | IC50 (Hela): > 20 µM

Compound: CC(=O)c1ccc2c(c1)c1ccccc1n2CCCF [PLA1055]
CC50 (CWR22R): 0.04 µM | LC90 (CWR22R; CWR22R, incubation 4-8 hours, survival at 72 hours, Alamar Blue assay): 2.5 µM | plasma concentration at 8 hours [1, 7]: below 1 uM | time up to which compound was detected in plasma [1, 7]: up to 24 hours

solubility [2]: poorly soluble
Compound: CCCn1c2ccccc2c2c3cc[nH]c(=O)c3ccc21 [PLA1099]

solubility [2]: poorly soluble
Compound: O=c1[nH]ccc2c1ccc1c2c2ccccc2n1CCCF [PLA1121]

Compound: FCCCn1c2ccccc2c2cc(-c3nnco3)ccc21 [PLA1125]
CC50 (CWR22R): 0.1 µM | plasma concentration time course [1]: fast reduction of concentration during the first hour | bioavailability through IP injection [1]: very high | in vivo efficacy (CWR22R tumors; CWR22R in SCID mice, 5 IV daily injections or 10 IP daily injections): absence of in vivo efficacy | Tumor concentration ([3]; 100 mg/kg, IP/IV): 7 to 10 nM | intra-tumor concentration relative to LC50% in vitro ([3]; mouse, in vivo): significantly below LC50%

Compound: O=C1NCCc2c1ccc1c2c2ncccc2n1CCCF [PLA1148]
plasma concentration time course [1]: fast reduction of concentration during the first hour | bioavailability through IP injection [1]: very high | plasma concentration of mouse injected twice versus mice injected once ([1]; two injections with 10 min interval): > 4 times | tumors of mice that died on the 5th day (CWR22R tumors; CWR22R, two mice): almost undetectable tumors | acute toxicity ([4]; 2 IP injections with 10 minute interval, one day, symptoms suggested acute liver failure): acute toxicity developed quickly after injection | mortality ([4]; after one day of injections): 2 mice died next day and 3 other during next 5 days | Liver ([3]; 50 mg/kg, IP): 50 nM | Tumor concentration ([3]; 50 mg/kg, IP): 0 to 90 nM | Tumor concentration ([3]; 48 hours after treatment): 84 nM | liver concentration ([3]; 48 hours after treatment): 49 nM | plasma concentration ([3]; 48 hours after treatment, compared with 24 hours (8.5 nM)): The same plasma concentration | drug in liver [3, 8]: no drug detected | drug in tumor [3, 8]: no drug detected | plasma concentration [3, 8]: 8.5 nM

Compound: O=C1NCCOc2c1ccc1c2c2ccccc2n1CCCF [PLA1163]
CC50 (CWR22R): 0.2 µM | solubility [2]: poorly soluble | Liver ([3]; 40 mg/kg, IP): 307 nM | Tumor concentration ([3]; 40 mg/kg, IP): 4 to 10 nM

Aqueous Solubility Classification [5]: Low | Aqueous Solubility Classification ([5]; pH 7.4): Low
Compound: O=c1[nH]ccc2c1ccc1c2c2ncccc2n1CCCF [PLA1181]

Aqueous Solubility Classification [5]: Moderate | Aqueous Solubility Classification ([5]; pH 7.4): Low
Compound: O=C1COc2c(ccc3c2c2ncccc2n3CCCF)N1 [PLA1183]

Compound: O=c1[nH]c2ccc3c(c4ccccc4n3CCCF)c2o1 [PLA1190]
Aqueous Solubility (pH 7.4) ([5]; pH 7.4): 3.5 μM | Aqueous Solubility Classification ([5]; pH 7.4): Low | metabolic stability, % left [6]: 70% | Metabolic stability, % left after 30 min with mouse liver microsomes [6, 9]: Stable | Metabolic stability, % left after 30 min with mouse liver microsomes [6, 10]: 77%

Compound: CC(=O)c1ccc2c(c1)c1c(C(N)=O)cccc1n2CCCF [PLA1191]
Aqueous Solubility (pH 7.4) ([5]; pH 7.4): 130 μM | Aqueous Solubility Classification ([5]; pH 7.4): High | Metabolic stability, % left after 30 min with mouse liver microsomes [6, 9]: Moderate | Metabolic stability, % left after 30 min with mouse liver microsomes [6, 10]: 30%

Compound: O=c1c2ccc3c(c2ccn1CCO)c1ccccc1n3CCCF [PLA1192]
Aqueous Solubility (pH 7.4) ([5]; pH 7.4): 15 μM | Aqueous Solubility Classification ([5]; pH 7.4): Moderate | Aqueous Solubility Classification [6, 9]: Moderate | Metabolic stability, % left after 30 min with mouse liver microsomes [6, 10]: 27%

Compound: O=c1c2ccc3c(c2ccn1CCN1CCCC1)c1ccccc1n3CCCF [PLA1193]
Aqueous Solubility (pH 7.4) ([5]; pH 7.4): 140 μM | Aqueous Solubility Classification ([5]; pH 7.4): High | Metabolic stability, % left after 30 min with mouse liver microsomes [6, 9]: Unstable | Metabolic stability, % left after 30 min with mouse liver microsomes [6, 10]: 3%

Compound: CN1Cc2c(ccc3c2c2ccccc2n3CCC(F)F)C1=O [PLA1194]
Aqueous Solubility (pH 7.4) ([5]; pH 7.4): 18 μM | Aqueous Solubility Classification ([5]; pH 7.4): Moderate | Aqueous Solubility Classification [6, 9]: Moderate | Metabolic stability, % left after 30 min with mouse liver microsomes [6, 10]: 28%

Compound: N#Cc1cccc2c1c1c3cc[nH]c(=O)c3ccc1n2CCCF [PLA1195]
Aqueous Solubility (pH 7.4) ([5]; pH 7.4): 2.7 μM | Aqueous Solubility Classification ([5]; pH 7.4): Low | Metabolic stability, % left after 30 min with mouse liver microsomes [6, 9]: Moderate | Metabolic stability, % left after 30 min with mouse liver microsomes [6, 10]: 63%

Compound: NC(=O)c1cccc2c1c1c3cc[nH]c(=O)c3ccc1n2CCCF [PLA1196]
Aqueous Solubility (pH 7.4) ([5]; pH 7.4): 26 μM | Aqueous Solubility Classification ([5]; pH 7.4): Moderate | Aqueous Solubility Classification [6, 9]: Moderate | Metabolic stability, % left after 30 min with mouse liver microsomes [6, 10]: 65%

Compound: O=C1CCc2c1ccc1c2c2c(F)cccc2n1CCCF [PLA1197]
Aqueous Solubility (pH 7.4) ([5]; pH 7.4): 4.0 μM | Aqueous Solubility Classification ([5]; pH 7.4): Low | metabolic stability, % left [6]: 77% | Metabolic stability, % left after 30 min with mouse liver microsomes [6, 9]: Stable | Metabolic stability, % left after 30 min with mouse liver microsomes [6, 10]: 73%

Compound: CC(=O)c1ccc2c(c1)c1c3c(ccc1n2CCCF)C(=O)CC3 [PLA1198]
Aqueous Solubility (pH 7.4) ([5]; pH 7.4): 2.5 μM | Aqueous Solubility Classification ([5]; pH 7.4): Low | Metabolic stability, % left after 30 min with mouse liver microsomes [6, 9]: Moderate | Metabolic stability, % left after 30 min with mouse liver microsomes [6, 10]: 46%

Compound: O=C1CCc2c1ccc1c2c2cc(Br)ccc2n1CCCF [PLA1199]
Aqueous Solubility (pH 7.4) ([5]; pH 7.4): 2.3 μM | Aqueous Solubility Classification ([5]; pH 7.4): Low | Metabolic stability, % left after 30 min with mouse liver microsomes [6, 9]: Moderate | Metabolic stability, % left after 30 min with mouse liver microsomes [6, 10]: 42%
